# Reference: ChEMBL document CHEMBL4483862, “Open-source discovery of chemical leads for next-generation chemoprotective antimalarials” (2018)
# Test system: Plasmodium berghei
# Experiment: Luciferase/luciferin-expressing antifolate-resistant parasites were used to infect a culture of HepG2 cells that were pre-incubated with compounds. Infected hepatocytes emit light due to the luciferase reaction. Assay results are presented as the percent inhibition of light emission compared to control. […]
# Format: functional
# Details: sporozoite; for IC90: read-out: LUCIFERASE INFECTION ASSAY - IC90
# [1] = read-out: LUCIFERASE INFECTION ASSAY - IC50
SMILES,IC90 [µM],IC50 [1] [µM],other results
COc1ccc(N(CC(=O)Nc2ccc(Cl)cc2Cl)S(=O)(=O)c2cccs2)cc1,3.69,,"IC50 (HEPG2TOX_HILL_SLOPE 1.66, HEPG2TOX_R_SQUARED 0.962, PBLUC_HILL_SLOPE 19.1, PBLUC_R_SQUARED 0.554, read-out: LUCIFERASE INFECTION ASSAY - IC50): 3.29 µM"
COC(=O)c1cccc2c1CCCN2C(=O)CCN1C(=O)C2CCCCC2C1=O (stereo not drawn),> 10,> 10,
CCOC(=O)c1nnsc1[S+]([O-])c1ccc(Cl)cc1 (stereo not drawn),> 10.4,> 10.4,
COc1cc(/C=C2\COC/C(=C\c3cc(OC)c(OC)c(OC)c3)C2=O)cc(OC)c1OC,0.888,,"IC50 (HEPG2TOX_HILL_SLOPE 2.96, HEPG2TOX_R_SQUARED 0.98, PBLUC_HILL_SLOPE 14, PBLUC_R_SQUARED 0.753, read-out: LUCIFERASE INFECTION ASSAY - IC50): 0.759 µM"
Cc1c(-c2cccc(Cl)c2)nc2ccccc2c1C(=O)OCC(=O)C(C#N)=C1Nc2ccccc2N1,> 10,> 10,
COc1ccc(-c2cc(-c3cccc(NS(C)(=O)=O)c3)cnc2N)c(OC)c1,4.29,,"IC50 (HEPG2TOX_HILL_SLOPE 1.15, HEPG2TOX_R_SQUARED 0.874, PBLUC_HILL_SLOPE 1.81, PBLUC_R_SQUARED 0.713, read-out: LUCIFERASE INFECTION ASSAY - IC50): 1.27 µM"
O=C1/C(=C\Nc2nnc(-c3ccccc3)c(-c3ccccc3)n2)c2ccccc2C(=O)N1c1cccc(C(F)(F)F)c1,> 10,> 10,
CCOc1ccc(-c2nc(C(=O)Nc3ncccc3O)cs2)cc1,3.84,,"IC50 (PBLUC_HILL_SLOPE 16.6, PBLUC_R_SQUARED 0.386, read-out: LUCIFERASE INFECTION ASSAY - IC50): 3.36 µM"
C=CC/N=c1\scc(-c2ccc(Br)s2)n1/N=C/c1ccccc1[N+](=O)[O-],> 10,> 10,
O=[N+]([O-])c1c[nH]c(-c2csc(-n3nccc3C(F)(F)F)n2)c1,4.09,1.82,
O/N=C1/c2ccccc2-c2nnc(-c3cccc(OC(F)(F)F)c3)cc21,1.49,,"IC50 (PBLUC_HILL_SLOPE 1.48, PBLUC_R_SQUARED 0.765, read-out: LUCIFERASE INFECTION ASSAY - IC50): 0.337 µM"
CN(C(=O)CN1C(=O)NC(c2ccccc2)(c2ccccc2)C1=O)C1CCCc2ccccc21 (stereo not drawn),> 10,,"IC50 (PBLUC_HILL_SLOPE 2.94, PBLUC_R_SQUARED 0.848, read-out: LUCIFERASE INFECTION ASSAY - IC50): 5.62 µM"
Cn1nnnc1Sc1nc(-c2ccccc2)nc2ccccc12,5.09,,"IC50 (HEPG2TOX_HILL_SLOPE 4.8, HEPG2TOX_R_SQUARED 0.994, PBLUC_HILL_SLOPE 8.61, PBLUC_R_SQUARED 0.614, read-out: LUCIFERASE INFECTION ASSAY - IC50): 3.95 µM"
O=C(Nc1ccc(N2CCOCC2)cc1)c1cccc(-c2nn[nH]n2)c1,> 10,> 10,
Cc1nc(NCc2ccc(Cl)cc2)c2cc(-c3ccccc3)sc2n1,> 10,,"IC50 (HEPG2TOX_HILL_SLOPE 0.0996, HEPG2TOX_R_SQUARED 0.0438, PBLUC_HILL_SLOPE 16.2, PBLUC_R_SQUARED 0.0193, read-out: LUCIFERASE INFECTION ASSAY - IC50): 9.43 µM"
COc1ccc(OC)c(NC(=O)C2(C)CCN2Cc2ccc(C(C)C)cc2)c1 (stereo not drawn),> 8.63,> 8.63,
COc1cc(/C=C/C(=O)Nc2nc3c(s2)CC(C)CC3)cc(OC)c1 (stereo not drawn),> 10,> 10,
O=C(NCC1CC1)c1cccc(C2(CNCc3ccc(F)c(Cl)c3)CC2)c1,> 10,> 10,
O=C(CCc1c(-c2ccc(F)cc2)[nH]c2ccc(F)cc12)N1CCN(c2ccccn2)CC1,3.87,3.16,
CN(c1nc2ccccc2nc1O)C1CCCCC1,> 10,> 10,
Cc1nc(NCc2ccc(-n3ccnc3)nc2)c2c(-c3ccccc3)csc2n1,4.03,,"IC50 (HEPG2TOX_HILL_SLOPE 1.9, HEPG2TOX_R_SQUARED 0.893, PBLUC_HILL_SLOPE 8.93, PBLUC_R_SQUARED 0.705, read-out: LUCIFERASE INFECTION ASSAY - IC50): 3.15 µM"
COc1ccc(Cl)cc1NC(=O)N1CCC(Cc2ccccc2)CC1,> 9.2,> 9.2,

SMILES,IC90 [µM],IC50 [1] [µM],other results
O=C(c1c[nH]c2ccccc12)C(c1ccccc1)N1CCN(CC(=O)N2CCCC2)CC1 (stereo not drawn),> 10,,"IC50 (PBLUC_HILL_SLOPE 1.28, PBLUC_R_SQUARED 0.65, read-out: LUCIFERASE INFECTION ASSAY - IC50): 3.5 µM"
CC1=NN(c2ccc(C)cc2)C(=O)C1=C1SCCS1,> 11.4,1.99,
CNc1snc(C)c1C(=O)OCc1ccc(-n2cccn2)cc1,1.04,,"IC50 (HEPG2TOX_HILL_SLOPE 12.1, HEPG2TOX_R_SQUARED 0.465, PBLUC_HILL_SLOPE 2.29, PBLUC_R_SQUARED 0.748, read-out: LUCIFERASE INFECTION ASSAY - IC50): 0.4 µM"
OC1CCC(Nc2nn3cc(-c4ccccc4)nc3s2)CC1 (stereo not drawn),0.247,,"IC50 (FFLUC_HILL_SLOPE 1.59, FFLUC_R_SQUARED 0.907, PBLUC_HILL_SLOPE 0.891, PBLUC_R_SQUARED 0.938, read-out: LUCIFERASE INFECTION ASSAY - IC50): 0.0209 µM"
Cc1ccc(OCC(=O)N(Cc2ccccc2)c2c(N)n(Cc3ccccc3)c(=O)[nH]c2=O)c(C)c1,> 10,,"IC50 (PBLUC_HILL_SLOPE 0.649, PBLUC_R_SQUARED 0.141, read-out: LUCIFERASE INFECTION ASSAY - IC50): > 10 µM"
Cc1cc2c(cc1C)NC(c1ccc(Br)cc1)C1C(=O)CCCC1=N2 (stereo not drawn),> 8.31,,"IC50 (PBLUC_HILL_SLOPE 1.27, PBLUC_R_SQUARED 0.271, read-out: LUCIFERASE INFECTION ASSAY - IC50): 6.95 µM"
c1ccc(-c2csc3ncnc(Sc4ccc5nnnn5n4)c23)cc1,> 10,,"IC50 (HEPG2TOX_HILL_SLOPE 2.04, HEPG2TOX_R_SQUARED 0.855, PBLUC_HILL_SLOPE 0.945, PBLUC_R_SQUARED 0.512, read-out: LUCIFERASE INFECTION ASSAY - IC50): 7.55 µM"
CCOC(=O)c1c(S(=O)(=O)Nc2ccc(OC(F)(F)F)cc2)c(-c2ccccc2)n(-c2ccccc2)c1C,> 6.06,,"IC50 (HEPG2TOX_HILL_SLOPE 3.6, HEPG2TOX_R_SQUARED 0.938, PBLUC_HILL_SLOPE 3.83, PBLUC_R_SQUARED 0.0999, read-out: LUCIFERASE INFECTION ASSAY - IC50): 3.44 µM"
C=CCn1c(SCC(=O)Nc2scc(-c3ccc(C(C)(C)C)cc3)c2C(=O)OCC)nc2sc3c(c2c1=O)CCC3,> 10,> 10,
CC(=O)c1cccc(-c2cnc3cnc(-c4cccc(C(N)=O)c4)cn23)c1,> 9.26,,"IC50 (PBLUC_HILL_SLOPE 1.58, PBLUC_R_SQUARED 0.572, read-out: LUCIFERASE INFECTION ASSAY - IC50): 3.69 µM"
COc1ccccc1-c1ccc2ncc(-c3cccc(C(C)=O)c3)n2n1,8.88,,"IC50 (HEPG2TOX_HILL_SLOPE 0.183, HEPG2TOX_R_SQUARED 0.285, PBLUC_HILL_SLOPE 2.88, PBLUC_R_SQUARED 0.586, read-out: LUCIFERASE INFECTION ASSAY - IC50): 4.14 µM"
Cc1cccc(NC(=S)Nc2cn(-c3ccccc3)nc2-c2ccc(Br)cc2)c1C,> 10,,"IC50 (FFLUC_HILL_SLOPE 12, FFLUC_R_SQUARED 0.538, PBLUC_HILL_SLOPE 15.7, PBLUC_R_SQUARED 0.516, read-out: LUCIFERASE INFECTION ASSAY - IC50): 9.52 µM"
O=C(Nc1cccc(C(F)(F)F)c1)n1cc(-c2ccccn2)c(N2CCOCC2)n1,> 7.91,,"IC50 (PBLUC_HILL_SLOPE 5.81, PBLUC_R_SQUARED 0.476, read-out: LUCIFERASE INFECTION ASSAY - IC50): 5.62 µM"
Clc1ccc2c(NCc3coc(-c4cccs4)n3)ncnc2c1,6.02,,"IC50 (HEPG2TOX_HILL_SLOPE 0.478, HEPG2TOX_R_SQUARED 0.927, PBLUC_HILL_SLOPE 2.76, PBLUC_R_SQUARED 0.49, read-out: LUCIFERASE INFECTION ASSAY - IC50): 2.71 µM"
Cc1ccc(Sc2ncccc2C(=O)Nc2nc3c(s2)CCCC3)cc1,3.95,3.38,
CCN(CCO)c1ccc(NC2=C(NC(C)=O)C(=O)c3ccccc3C2=O)cc1,> 10,,"IC50 (FFLUC_HILL_SLOPE 10.4, FFLUC_R_SQUARED 0.141, HEPG2TOX_HILL_SLOPE 0.681, HEPG2TOX_R_SQUARED 0.905, PBLUC_HILL_SLOPE 1.27, PBLUC_R_SQUARED 0.687, read-out: LUCIFERASE INFECTION ASSAY - IC50): 2.16 µM"
CC(C)n1ncc2c(C(=O)Nc3sccc3C#N)cc(C3CC3)nc21,> 10,,"IC50 (FFLUC_HILL_SLOPE 1.6, FFLUC_R_SQUARED 0.58, HEPG2TOX_HILL_SLOPE 1.47, HEPG2TOX_R_SQUARED 0.871, PBLUC_HILL_SLOPE 3.01, PBLUC_R_SQUARED 0.133, read-out: LUCIFERASE INFECTION ASSAY - IC50): 5.55 µM"
CCN(C(=O)CSc1nnc(SCC(=O)N(CC)C2CCCCC2)s1)C1CCCCC1,> 10,> 10,
O=C(CCc1c(-c2ccc(F)cc2)[nH]c2ccc(F)cc12)NCCN1CCOCC1,> 10,,"IC50 (HEPG2TOX_HILL_SLOPE 0.681, HEPG2TOX_R_SQUARED 0.0413, read-out: LUCIFERASE INFECTION ASSAY - IC50): > 10 µM"
Cc1nc(-c2ccsc2)sc1C(=O)Nc1nc(-c2ccc(NS(C)(=O)=O)cc2)cs1,8.82,5.84,
C/C(=N\Nc1c(Cl)cc(Cl)cc1Cl)c1ccc(N2CCOCC2)cc1,> 10,4.84,
COC(=O)c1c(C)[nH]c(C(=O)C(C)OC(=O)Cn2c(C(F)(F)F)nc3ccccc32)c1C (stereo not drawn),> 10,,"IC50 (HEPG2TOX_HILL_SLOPE 1.23, HEPG2TOX_R_SQUARED 0.914, read-out: LUCIFERASE INFECTION ASSAY - IC50): > 10 µM"
